Assay results taken from article PMC12525728, “Safety, Pharmacokinetics, Translational and Molecular Mechanistic Insights on the Prostate Cancer Recurrence Suppressor Pseurotin A” (Molecules, 2025).

Test system: Swiss albino mice
Test: Hematological and biochemical evaluation after 90-day daily oral dosing
Format: in vivo
Details: for HCT / HGB / MCHC / MCV / PLT / RBC-H / WBC-H: mean ± SD; for ALP, plasma / ALT, plasma / AST, plasma / BUN, plasma / CREAT (creatinine), plasma / GLU (glucose), plasma: mean ± SEM
Description: For the 90-day daily oral dosing sub-chronic toxicity study, twenty male and twenty female healthy 8-week-old Swiss albino mice were randomly selected and randomized to […] (n = 5/sex/group). Mice received free access to purified drinking water and high-fat diet (HFD) pelleted rodent chow (11.4% total fat, no. 7004, Envigo/Teklad, Madison, WI, USA) until the day before sacrifice, at which time they were fasted for 8 h and allowed only free access to drinking water. Daily doses of PsA (10, 40, 80 mg/kg body weight) were administered to the mice formulated in <5% DMSO (Mediatech Inc., Manassas, VA, USA) and <0.2% Tween 80 (Croda Inc., Princeton, NJ, USA) at a volume not exceeding 1% of body weight by metal oral gavage (2 mm diameter with stainless steel bite protector, 18-gauge, 3.81 cm long). […] The mice were observed weekly until the completion of the study. The body weights of the mice were measured in grams using a Scout^TM Pro (Ohaus Corp., Pine Brook, NJ, USA) on day 0, 4, 8, 11, 14, 21, 28, 35, 42, 49, 56, 63, 70, 77, 83, and 90 after initial treatment. On day 90, all mice were anesthetized using isoflurane (USP-vaporizer method, Matrix VIP-3000, Covetrus, Dublin, OH, USA, exposure of animals in an anesthesia chamber at 3% isoflurane vaporization rate. Exposure time 2 min). Mice were then euthanized by cervical dislocation according to the 2020 AVMA Guidelines on Euthanasia and dissected. Mice organs (brain, liver, kidney, heart, lungs, spleen) were excised and weighed for histopathological examination. The organs were stored in 10% neutral buffered formalin (Avantor Science Central, Allentown, PA, USA) for 24 h and then transferred to 70% ethanol (AAPER ALCOHOL, Shelbyville, KY, USA). This study was performed following the OECD guideline 408 for the testing of chemicals.
On the day of sacrifice, mice were decapitated, and the blood was quickly collected into a green-topped Lithium Heparin 400 µL blood collection tube (BD Microtainer REF# 365965) as well as a purple-topped K2 EDTA (K2E) 500 µL blood collection tube (BD Microtainer, Cat# 365974) to ensure all blood samples were collected free of clots. The Li Heparin samples were immediately centrifuged at 13,000× g for 10 min, and the plasma was transferred to 1.5 mL Eppendorf tubes free of Li heparin for biochemical analysis. Plasma samples were analyzed for AST, ALT, ALP, glucose, BUN, and creatinine levels using the Beckman AU680 clinical chemistry analyzer system (Beckman Coulter, Atlanta, GA, USA). The ETDA samples were analyzed for hematological parameters, and WBC, RBC, Hgb, Hct, MCV, MCHC, and PLT were determined using the Siemens Advia 120 hematology analyzer (Siemens Healthcare Diagnostics Inc., Tarrytown, NY, USA). All blood samples were analyzed at the LSU School of Veterinary Medicine Clinical Pathology Laboratory at Baton Rouge, Louisiana.
Results for the hematological and biochemical parameters were analyzed separately by One-way Analysis of Variance (ANOVA), followed by multiple comparisons with Dunnett’s test. All statistical analyses were performed using GraphPad Prism version 8 software (San Diego, CA, USA). Data in this study were expressed as a mean ± SD (standard deviation) and mean ± SEM (standard error of mean). A probability value of <0.05 was considered statistically significant (* p < 0.05; ** p < 0.01; and *** p < 0.001).

[1] = female, 10mg/kg daily oral 90 days
[2] = female, 40mg/kg daily oral 90 days
[3] = female, 80mg/kg daily oral 90 days
[4] = male and female treatment groups, 90 days
[5] = male, 10mg/kg daily oral 90 days
[6] = male, 40mg/kg daily oral 90 days
[7] = male, 80mg/kg daily oral 90 days

## CC/C=C\[C@H](O)[C@H](O)C1=C(C)C(=O)[C@]2(O1)C(=O)N[C@@](OC)(C(=O)c1ccccc1)[C@@H]2O [PsA, pseurotin A]
All male dosing groups, 90 days
  AST level versus control: significantly lower
Female treatment groups, 90 days
  AST level versus control: significant reduction
[1]
  HCT: 48.5 ± 6.0%
  HGB: 12.5 ± 0.3 g/dL
  MCHC: 26.2 ± 3.0 g/dL
  MCV: 52.1 ± 5.0 fL
  PLT: 459.0 ± 99.1 103/μL
  RBC-H: 9.3 ± 0.3 106/μL
  WBC-H: 6.5 ± 0.6 103/μL
  ALP, plasma: 78.0 ± 3.8 U/L
  ALT, plasma: 34.3 ± 1.9 U/L
  AST, plasma: 61.7 ± 6.4 U/L
  BUN, plasma: 22.0 ± 0.6 mg/dL
  CREAT (creatinine), plasma: 0.2 ± 0.0 mg/dL
  GLU (glucose), plasma: 291.7 ± 6.5 mg/dL
[2]
  ALP, plasma: 68.0 ± 3.8 U/L
  ALT, plasma: 34.5 ± 1.9 U/L
  AST, plasma: 67.8 ± 7.1 U/L
  BUN, plasma: 17.5 ± 0.4 mg/dL
  CREAT (creatinine), plasma: < 0.2 ± 0.0 mg/dL
  GLU (glucose), plasma: 259.0 ± 5.7 mg/dL
[3]
  ALP, plasma: 86.8 ± 13.4 U/L
  ALT, plasma: 30.3 ± 3.4 U/L
  AST, plasma: 81.3 ± 17.8 U/L
  BUN, plasma: 18.5 ± 2.1 mg/dL
  CREAT (creatinine), plasma: 0.2 ± 0.0 mg/dL
  GLU (glucose), plasma: 235.3 ± 19.4 mg/dL
female, all three treatment groups, 90 days
  plasma ALT level versus control: significantly lower
Male 10 mg/kg, female 40 mg/kg and female 80 mg/kg groups, 90 days
  BUN level versus control: significantly lower
Male 40 mg/kg group, 90 days
  MCV versus control: significantly higher
[4]
  ALP and plasma glucose levels: no significant changes
  CREAT levels: no significant change
Male up to 80 mg/kg, female 10 mg/kg, 90 days
  WBC-H, RBC-H, HGB, HCT, MCHC, PLT versus control: did not show any significant changes
[5]
  HCT: 41.0 ± 3.0%
  HGB: 11.8 ± 0.4 g/dL
  MCHC: 28.8 ± 2.5 g/dL
  MCV: 49.6 ± 2.5 fL
  PLT: 555.0 ± 147.7 103/μL
  RBC-H: 8.3 ± 0.6 106/μL
  WBC-H: 4.5 ± 1.0 103/μL
  ALP, plasma: 71.8 ± 4.7 U/L
  ALT, plasma: 28.3 ± 1.7 U/L
  AST, plasma: 57.8 ± 12.8 U/L
  BUN, plasma: 18.3 ± 0.7 mg/dL
  CREAT (creatinine), plasma: 0.2 ± 0.0 mg/dL
  GLU (glucose), plasma: 263.8 ± 9.9 mg/dL
[6]
  HCT: 47.4 ± 4.3%
  HGB: 11.9 ± 0.9 g/dL
  MCHC: 25.1 ± 3.3 g/dL
  MCV: 55.4 ± 4.8 fL
  PLT: 413.0 ± 111.2 103/μL
  RBC-H: 8.6 ± 0.8 106/μL
  WBC-H: 5.0 ± 1.8 103/μL
  ALP, plasma: 78.3 ± 5.2 U/L
  ALT, plasma: 28.5 ± 2.5 U/L
  AST, plasma: 42.8 ± 1.9 U/L
  BUN, plasma: 20.5 ± 0.8 mg/dL
  CREAT (creatinine), plasma: 0.2 ± 0.0 mg/dL
  GLU (glucose), plasma: 248.5 ± 12.0 mg/dL
[7]
  HCT: 47.8 ± 4.9%
  HGB: 12.5 ± 0.3 g/dL
  MCHC: 26.3 ± 2.2 g/dL
  MCV: 53.3 ± 5.1 fL
  PLT: 580.3 ± 119.8 103/μL
  RBC-H: 9.0 ± 0.1 106/μL
  WBC-H: 7.9 ± 1.4 103/μL
  ALP, plasma: 63.0 ± 3.4 U/L
  ALT, plasma: 48.0 ± 4.8 U/L
  AST, plasma: 48.5 ± 4.50 U/L
  BUN, plasma: 20.3 ± 0.2 mg/dL
  CREAT (creatinine), plasma: 0.2 ± 0.0 mg/dL
  GLU (glucose), plasma: 272.3 ± 15.4 mg/dL
Treated males, 90 days
  ALT level versus control: did not show a significant change
